Test results published in PubChem BioAssay AID179 (DTP/NCI, 2004).
Calls of active or inactive are those of the source.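 The calls were made as follows: active = compounds giving half or more protection of infected cells from virus-caused growth loss, again on retest; inactive = the rest.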 Where a SMILES comes first, the peptide text is derived from it. [ ]: non-standard residue; d: D form. The star is where a group is joined. Tyr(3-Br) = N[C@@H](Cc1ccc(O)c(Br)c1)C(=O)O; Boc = CC(C)(C)OC(=O)*

System: CEM cells HIV-1 protection, formazan growth assay
Experiment: NCI AIDS Antiviral Assay
Settings: for IC50: measured here: growth of uninfected CEM cells
Summary of the method: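 Screen of anti-HIV-1 activity in human CEM cells using a formazan-based growth measurement at five drug concentrations. Hits with 50% or greater protection were repeated, and confirmation required reproducible complete protection.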

SMILES	EC50	IC50	outcome
O=[N+]([O-])c1ccc(/C=N/Nc2nnc3c4ccccc4c4ncccc4c3n2)o1	> 100 µM	> 100 µM	
Cc1cc(C=C2C(=O)NC(=S)NC2=O)c(C)n1-c1ccccc1	> 6.17 µM	> 6.17 µM	
CN(C(=O)c1ccc2c(c1)sc1c(=O)n(C)c3ccccc3c12)c1ccccc1	> 200 µM	> 200 µM	
COc1ccc2c(c1)N1CCc3cc(OC)c(OC)cc3C1C2 (stereo unspecified)			inactive
CCCC(=O)Oc1ccc2c(C)cc(=O)oc2c1	> 200 µM	> 200 µM	
Cc1cc2c(C=O)[nH]nc2c(C#N)c1C			inactive
Cc1nc(N)c(N2CCNCC2)c(=O)[nH]1	> 200 µM	> 200 µM	
S=C(NCc1ccccc1-c1ccccc1)Nc1ccc(Br)cn1	> 2 µM	0.38 µM	
CC(=O)COC(=O)CC(C)=O			inactive
COc1ccc(-c2c(C3=NCCN3)nnn2-c2ccccc2)cc1	> 295 µM	> 295 µM	
CCOc1ccc(NC(=O)C(=O)Nn2c(N)nnc2N)cc1	> 61.7 µM	> 61.7 µM	
O=C(OC12CC3CC(CC(C3)C1)C2)c1ccc(NCc2cc(O)ccc2O)cc1	> 20 µM	0.955 µM	
Cc1ccccc1NC(=O)C(=O)CC(=O)c1ccc([N+](=O)[O-])cc1	> 8.32 µM	> 8.32 µM	
COC(=O)[C@H](Cc1ccc(O)c(Br)c1)NC(=O)[C@H](Cc1ccc(O)cc1)NC(=O)OC(C)(C)C (Boc-Tyr-[Tyr(3-Br)]-OMe)	> 200 µM	34.7 µM	
COC(=O)/C=C1\C(=O)N(C(C)=O)c2ccccc21	> 200 µM	3.31 µM	
O=C1[C@@H]2[C@@H](CN3CN(c4ccccc4)N=C(c4ccccc4)[C@@]23c2ccccc2)C(=O)N1c1ccccc1	> 20 µM	2.95 µM	
CC(=O)O[C@H]1C(N(C)C(=O)c2ccccc2)CC[C@]2(C)C3CC[C@@]4(C)C(CC(O)[C@@H]4C(C)N(C)C)[C@@H]3CCC12 (stereo partly specified)	> 25.1 µM	> 25.1 µM	
O=C1[C@@H]2C(c3ccccc3[N+](=O)[O-])=[N+](c3ccccc3)O[C@@H]2C(=O)N1c1ccc(Cc2ccc(N3C(=O)[C@H]4C(c5ccccc5[N+](=O)[O-])=[N+](c5ccccc5)O[C@H]4C3=O)cc2)cc1	> 8.51 µM	> 8.51 µM	
Cc1ccc2c(c1)-c1[nH]c3ccccc3c1CS2			inactive
O=C(O)c1sccc1-c1cccc2ccccc12	> 200 µM	83.2 µM	
CC(C)=C[C@@H]1C[C@H](C)c2c(O)cc(C)c3c2C1=C(C)C(=O)C3=O	> 200 µM	22.4 µM	
O=P1(c2ccccc2)C(c2ccccc2)=CC=C1c1ccccc1	> 200 µM	7.41 µM	

SMILES	EC50	IC50	outcome
CC(C)CCCC(C)[C@H]1CCC2[C@@H]3CCC4Nc5[nH]ncc5C[C@]4(C)C3CC[C@@]21C (stereo partly specified)			inactive
CC1OC(n2cc(F)c(=O)[nH]c2=O)C=CC1O (stereo unspecified)	> 1020 µM	407 µM	
CCOC(=O)Cc1nc(Cl)c2c(C)c(C)sc2n1	> 174 µM	38.9 µM	
CCC1=C(C[C@H]2NCCc3cc(OC)c(OC)cc32)C[C@H]2c3cc(OC)c(OC)cc3CCN2C1			inactive
CN(C)c1cccc(NC2=NCCO2)c1	> 200 µM	33.9 µM	
O=[N+]([O-])c1cc([As](=O)(O)O)ccc1F	> 200 µM	> 200 µM	
O=C(O)c1ccc(O)c(N=Nc2cc(S(=O)(=O)O)c3cccnc3c2O)c1	81.3 µM	224 µM	
Cn1c(=O)c2/c(n(C)c1=O)=N\C=c1\c(=O)n(C)c(=O)n(C)\c1=N\C=2	> 182 µM	> 182 µM	
NC(=N\N=C/c1ccc(Cl)cc1Cl)/C(N)=N\N=C/c1ccc(Cl)cc1Cl			inactive
C[N+](C)(C)CC1CCC/C1=N/O (stereo unspecified)	> 832 µM	> 832 µM	
C[C@]12CC[C@@H]3c4ccc(OS(=O)(=O)O)cc4CC[C@H]3[C@@H]1CCC2=O			inactive
CC1=C(N2CC2)C(=O)c2nc3n(c2C1=O)CCC3OC(=O)CCl (stereo unspecified)	> 200 µM	0.692 µM	
COCN(COC)c1nc(CCC(Br)(Br)Br)nc(N(COC)COC)n1	> 83.2 µM	37.2 µM	
COc1ccc(CCNC(=O)Cc2cc(OC)c(OC)cc2Br)cc1OC	> 81.3 µM	> 81.3 µM	
Cc1cccc(C)c1C1(Cl)C(=O)c2ccccc2C1=O	> 200 µM	13.5 µM	
CC(=O)OC(C(=O)[O][Ge]([CH3])([CH3])[CH3])c1ccccc1 (stereo unspecified)			inactive
CC(C)CC(NC(=O)C(Cc1ccc(O)cc1)NC(=O)C(CO)NC(=O)C(CCC(N)=O)NC(=O)C1CCCN1C(=O)C(CC(C)C)NC(=O)C(C)NC(=O)CNC(=O)C(N)CCC(N)=O)C(=O)NCC(=O)O (stereo unspecified) (H-QGALPQSYLG-OH; configuration not given here)			inactive
CCN(CC)CCCNc1ccc([N+](=O)[O-])c2nc3ccc(OC)cc3c(N)c12	> 200 µM	0.776 µM	
NC1=NC(c2ccccc2)C2=C(N1)C(=O)N(Cc1ccccc1)C2 (stereo unspecified)	> 204 µM	72.4 µM	
CC[N+](C)(CC)Cc1ccccc1[N+](=O)[O-]	> 200 µM	126 µM	
CC(CC(=O)N1C(=O)C(C)(C)[C@@H](O)[C@H]1CC(C)C(Cl)(Cl)Cl)C(Cl)(Cl)Cl (stereo partly specified)			inactive
C(#CP(c1ccccc1)c1ccccc1)P(C#CP(c1ccccc1)c1ccccc1)c1ccccc1			inactive
